Measured values from patent US6620842B2, “Chalcones” (Indena SpA, priority 1999, dated 2003).

Experiments:
[1] = system: drug-resistant breast cancer cells MDA-435/LCC6-MDR; test: Cytostatic activity of paclitaxel alone or in combination with the compounds (SRB cell growth inhibition); type: cell-based; settings: IC50 of paclitaxel alone or in presence of compound (reversing agent, 1 μM), MDA-435/LCC6-MDR cells, 72 h
Description: The compounds were then evaluated in combination with paclitaxel for their cytostatic activity against the drug-resistant breast cancer cells MDA-435/LCC6-MDR.
In the experiments, the compounds were used in combination with paclitaxel, the paclitaxel being at a concentration of 0.3 μM.
Cancer Inst, 82, 1107, 1990.

[2] = system: drug-resistant cancer cells
Description: (§1) The treatment consisted of concurrent exposure of MDA-435/LCC-MDR cells to paclitaxel in the presence or absence of the compounds reversing agent (1 μM) for 72 h in vitro. Assessment of cytotoxicity, i.e. cell growth inhibition, was determined according to the methods of Skehan, et al. as discussed in J. Nat.
(§2) Briefly, cells were plated between 400 and 1200 cells/well in 96 well plates and incubated at 37° C. for 15-18 h prior to drug addiction to allow attachment of cells. Compounds were solubilized in 100% DMSO and further diluted in RPMI-1640 containing 10 mM HEPES. After a 72 h incubation, 100 μl of ice-cold 50% TCA was added to each well and incubated for 1 h at 40° C. Plates were then washed 5 times with tap water to remove TCA, low-molecular weight metabolites and serum proteins. Suforhodamine B (SRB) (0.4%, 50 μl) was added to each well. Following a five minute incubation at room temperature, plates were rinsed 5 times with 0.1% acetic acid and air dried. Bound dye was solubilized with 10 mM Tris Base (pH 10.5) for 5 mm on a gyratory shaker. Optical density was measured at 570 nm.

[3] = Cytotoxicity of the compounds alone against drug-resistant cancer cells; settings: human, MDA-435/LCC-MDR cells (drug-resistant cancer cells)
Description: as §1, §2

| Compound | IC50 at 72 h [3] | further results |
| --- | --- | --- |
| CC(=O)O[C@H]1C(=O)[C@@]2(C)[C@H]([C@H](OC(=O)c3ccccc3)[C@]3(O)C[C@H](OC(=O)[C@H](O)[C@@H](NC(=O)c4ccccc4)c4ccccc4)C(C)=C1C3(C)C)[C@]1(OC(C)=O)CO[C@@H]1C[C@@H]2O [Paclitaxel, paclitaxel] | – | IC50 [1]: 426 nM |
| 1-[3-Methyl-7-(Prop-2-ynyloxy)flavon-8-yl]-Phenyl-Propen-1-one [VIB 167] | – | IC50 [2]: > 1000 nM |
| COc1cc(C=CC(=O)c2c(OCC=C(C)C)ccc3c(=O)c(C)c(-c4ccccc4)oc23)cc(OC)c1OC [VIB 173, 1-[3-Methyl-7-(3-Methylbut-2-Enyloxy)Flavon-8-yl]-3-(3,4,5-Tri-Methoxy)Phenyl-Propen-1-one] | > 1000 nM | – |
| COc1cc(C=CC(=O)c2c(OCC=C(C)C)ccc3c(=O)c4ccccc4oc23)cc(OC)c1OC [VIB 178, 1-[3-(3-Methylbut-2-Enyloxy)Xanthen-9-one-4-yl]-3-(3,4,5-Tri-Methoxyphenyl)-Propen-1-one] | > 1000 nM | – |
